Where two headings read alike, the source gives them in different places.
What was measured:
[1] = system: mouse abdominal cavity macrophage; assay: In vitro test for suppressing effect of macrophage-foaming reaction; assay type: cell-based; conditions: compared with control; for activity at 5 µM: Mus musculus, Macrophage, 16 h
Description: (1) In vitro test for suppressing effect of macrophage-foaming reaction using mouse abdominal cavity macrophage
A 15-week old ICR female mouse (Japan SLC) was amputated at its neck and exsanguinated. Then, Hanks buffer (Nissui Pharmaceutical Co., Ltd.) was injected intraperitoneally. After massaging the abdominal part, the buffer was recovered rapidly and centrifuged at 1,000 rpm for 5 minutes to collect the abdominal cavity macrophage. Then, the collected abdominal cavity macrophage was suspended in GIT medium (Wako Pure Chemical Industry) and inoculated on a 24-well microplate. After culturing the macrophage for 2 hours at 37° C. in 5% CO2, the medium was changed into Dulbecco modified Eagle's MEM medium (Nissui Pharmaceutical Co., Ltd.). After further culturing the macrophage for 16 hours at 37° C. in 5% CO2, the following substances were added in order:
1 Test compounds: solutions in DMSO (Wako Pure Chemical Industry) 1 ml of the solutions were prepared, optionally diluted and the diluted solutions were added to individual wells (500 μl) in the amount of 5μl.
PC: phosphatidylcholine (Funakoshi)
PS: phosphatidylserine (Funakoshi)
DCP: dicetylphosphate (Funakoshi)
CHOL.: cholesterol (Sigma)
3 ^3 H-Oleic acid (Amersham Japan)
Then, after still further culturing the macrophage for 16 hours at 37° C. in 5% CO2, the lipid fraction was extracted with chloroform and methanol. The extracted lipid fraction was subjected to TLC (hexane:ether:acetic acid=70:30:1), the separated bands of CE (cholesterylester) and TG (triglyceride) were borne off from the TLC plate and then the radioactivities thereof were measured using a liquid scintillation counter (PACKARD BH-22). Yields of cholesteryl ester were calculated by comparing with a control.

[2] = system: rabbit fed high-cholesterol feed; assay: Blood lipid lowering effect in rabbit fed high-cholesterol feed; assay type: in vivo; conditions: New Zealand White female rabbits, 100 mg/kg/day in feed for 7 successive days
Description: (2) Blood lipid lowering effect in rabbit fed high-cholesterol feed (i) New Zealand White female rabbits having body weight of about 2 kg were fed feed having high cholesterol content (100 g/day/rabbit: ORC-4 manufactured by Oriental Yeast, containing 0.5% of cholesterol and 0.5% of olive oil) for 7 days to produce hypercholesterolemia.
(§1) Subsequently, one group consisting of 3 rabbits (treatment group) was fed the same feed in the same amount, except that the feed further contained test compound (8) in the amount of 100 mg/kg/day/rabbit, for 7 successive days. On the other hand, as a control, another group consisting of 3 rabbits was fed the same feed in the same amount without any test compound.
(§2) A small amount of blood was drawn from the parotic vein of every rabbit once a week and was measured for amount of blood total cholesterol using IATROLIPO TC manufactured by Iatron Laboratories Inc.
Thus, it is clear that test compound (8) has an excellent lowering effect of the blood cholesterol. (ii) New Zealand White female rabbits having body weight of about 2 kg were fed feed having high cholesterol content (100 g/day/rabbit: ORC-4 manufactured by Oriental Yeast, containing 0.5% of cholesterol and 0.5% of olive oil) for 7 days to produce hypercholesterolemia. […]

[3] = system: rabbit fed normal feed; assay: Blood lipid lowering effect in rabbit fed normal feed; assay type: in vivo; conditions: New Zealand White female rabbits, 100 mg/kg/day in feed for 7 successive days
Description: (3) Blood lipid lowering effect in rabbit fed normal feed (i) New Zealand White female rabbits having body weight of about 2 kg were fed normal feed (100 g/day/rabbit: ORC-4 manufactured by Oriental Yeast) for 7 days.
as §1, with “fed the normal feed in” for “fed the same feed in”, “successive days. As a control,” for “successive days. On the other hand, as a control,”
A Small amount of blood was drawn from the parotic vein of every rabbit once a week and was measured for amount of blood total cholesterol using IATROLIPO TC manufactured by Iatron Laboratories Inc.
Thus, it is clear that test compound (8) has an excellent blood cholesterol lowering effect not only on rabbits fed high-cholesterol feed but also on rabbits fed normal feed. (ii) New Zealand White female rabbits having body weight of about 2 kg were fed normal feed (100 g/day/rabbit: ORC-4 manufactured by Oriental Yeast) for 7 days. […]
as §2

[4] = Acute toxicity test; conditions: mouse, in vivo; oral, suspension in 0.5% Tween 80, 8-week old ddy mice
Description: Compounds (8) and (53) each was suspended in 0.5% Tween 80 solution. Six 8-week old ddy mice were orally administered the suspensions respectively and were observed on acute toxicity.

[5] = system: rabbit fed feed having high cholesterol content; assay: Arteriosclerosis focus formation-regressing effect in rabbit fed feed having high cholesterol content; assay type: in vivo; conditions: 100 mg/kg/day in feed for 20 successive days
Description: (4) Arteriosclerosis focus formation-regressing effect in rabbit fed feed having high cholesterol content
New Zealand White female rabbits having body weight of about 2 kg were fed feed having high cholesterol content (100 g/day/rabbit: ORC-4 manufactured by Oriental Yeast, containing 0.5% of cholesterol and 0.5% of olive oil) for 7 days to produce hypercholesterolemia.
as §1, with “(53)” for “(8)”, “20” for “7”
After 20 weeks from the administration of the test compound, the aortas and arch part thereof were removed from each rabbit and the blood vessels were opened. Comparing the treatment group with the control group, it was observed that the arteriosclerosis focus formation was suppressed effectively in the treatment group.

[6] = cholesteryl ester from 3H-oleic acid, read-out: Yield of CE (%)
[7] = triglyceride from 3H-oleic acid, read-out: Yield of TG (%)

Structure (SMILES) | activity at 5 µM [1, 6] [%] | activity at 5 µM [1, 7] [%] | further results
Cc1nc2ccc([N+](=O)[O-])cc2[nH]1 [(5), 2-metyl-5-nitrobenzimidazole] | 67 | 89 | 
O=[N+]([O-])c1ccc2nc(CCCCCCCCc3nc4ccc([N+](=O)[O-])cc4[nH]3)[nH]c2c1 [(6), 1,8-bis(5-nitrobenzimidazol-2-yl) octane] | 8 | 61 | 
c1ccc(CSc2nc3ccccc3[nH]2)cc1 [(7), 2-benzylthiobenzimidazole] | 61 | 91 | 
CCCCCCCCCCCC(=O)Nc1ccc2nc(S)[nH]c2c1 [(8), 5-dodecanoylamino-2-mercaptobenzimidazole] | 42 | 106 | fall of amount of blood total cholesterol in comparison with the control group [2]: 25%; fall of amount of blood total cholesterol in comparison with the control group [3]: 20%; LD50 [4]: ≥ 1000 mg/kg
CCCCCCCCCC(=O)Nc1ccc2[nH]c(S)nc2c1 [(10)] | 69 | 129 | 
CCCCCCCCCCCCNS(=O)(=O)c1ccc2[nH]c(S)nc2c1 [(12)] | 52 | 102 | 
CCCCCCCCCCCCCCCCSc1nc2ccccc2[nH]1 [(20)] | 49 | 62 | 
CCCCCCCCS(=O)(=O)Nc1ccc2[nH]c(S)nc2c1 [(21)] | 64 | 93 | 
CC(CC(=O)Nc1ccc2[nH]c(S)nc2c1)CC(C)(C)C (stereo not drawn) [(23)] | 56 | 119 | 
CCCCCCCCOc1ccc2[nH]c(S)nc2c1 [(27)] | 51 | 78 | 
CCCCCCCCCCCC(=O)Nc1ccc2[nH]c(SC)nc2c1 [(28)] | 53 | 164 | 
CCCCCCCCCCCCNC(=O)c1ccc2[nH]c(S)nc2c1 [(30)] | 51 | 91 | 
CCCCCCCCCCCCOC(=O)c1ccc2[nH]c(S)nc2c1 [(34)] | 50 | 108 | 
CN1C(=O)C(Cl)C(Sc2nc3ccccc3[nH]2)N(C)C1=O (stereo not drawn) [(42)] |  |  | Yield of CE (%) ([1]; 5 μM, cholesteryl ester from 3H-oleic acid, 960 min): 61%; Yield of TG (%) ([1]; 5 μM, triglyceride from 3H-oleic acid, 960 min): 96%
O=C(CSc1nc2ccccc2[nH]1)c1ccccc1O [(43)] | 45 | 98 | 
CCCCCCCCCCCC(=O)Nc1ccc2[nH]cnc2c1 [(47)] | 55 | 98 | 
Cc1cc(Cc2cc(C)cc(C(C)(C)C)c2O)c(O)c(C(C)(C)C)c1 [(52)] | 38 | 101 | 
Cc1cc(C)c(O)c(C(c2cc(C)cc(C)c2O)C(C)C)c1 [(53), 2,2'-isobutylidenebis(4,6-dimethyphenol)] | 56 | 92 | fall of amount of blood total cholesterol in comparison with the control group [2]: 40%; fall of amount of blood total cholesterol in comparison with the control group [3]: 20%; cholesterol deposition to the eye ball ([5]; after 20 weeks): suppressing; fatty liver formation ([5]; after 20 weeks): suppressing; arteriosclerosis focus formation ([5]; aortas examined after 20 weeks): suppresses; LD50 [4]: ≥ 1000 mg/kg
Cc1cc(C)c(O)c(C(CC(C)CC(C)(C)C)c2cc(C)cc(C)c2O)c1 (stereo not drawn) [(54)] | 25 | 95 | 
CCCC(c1cc(C(C)(C)C)cc(C(C)(C)C)c1O)c1cc(C(C)(C)C)cc(C(C)(C)C)c1O [(56)] | 51 | 102 | 
CC(=O)Oc1c(Cc2cc(C)cc(C(C)(C)C)c2O)cc(C)cc1C(C)(C)C [(58)] | 45 | 98 | 
Cc1cc(C(c2ccccc2)c2cc(C)cc(C(C)(C)C)c2O)c(O)c(C(C)(C)C)c1 [(60)] | 48 | 96 | 
CCCCCCCC(c1cc(C)cc(C2(C)CCCCC2)c1O)c1cc(C)cc(C2(C)CCCCC2)c1O [(61)] | 52 | 103 | 
Cc1cc(C)c(O)c(C(C)(C)c2cc(C)cc(C)c2O)c1 [(62)] | 61 | 98 | 
CCC(C)(C)c1cc(C(C)c2cc(C(C)(C)CC)cc(C(C)(C)CC)c2O)c(O)c(C(C)(C)CC)c1 [(63), 2,2'-ethylidenebis(4,6-di-tert-pentylphenol)] | 42 | 96 | 
CCC(C)c1cc(C(C)CC)c(O)c(C(c2cc(C(C)CC)cc(C(C)CC)c2O)C(C)C)c1 (stereo not drawn) [(65)] | 38 | 101 | 
Cc1cc(C)c(O)c(Cc2cc(C(C)(C)C)cc(C(C)(C)C)c2O)c1 [(66)] | 54 | 108 | 
COC(=O)CCCC(C)(C)c1cc(C)cc(Cc2cc(C)cc(C(C)(C)CCCC(=O)OC)c2O)c1O [(67)] | 42 | 92 | 
CCOC(=O)Oc1c(C)cc(C)cc1C(c1cc(C)cc(C)c1O)C(C)C (stereo not drawn) [(73)] | 48 | 90 | 
Cc1cc(C(CCc2ccccc2)c2cc(C)cc(C(C)(C)C)c2O)c(O)c(C(C)(C)C)c1 [(74)] | 65 | 108 | 

— patent US5387600A, “Treating arteriosclerosis using benzimidazole compositions” (priority 1992, dated 1995)
